Literature values in US11491229B2, “Medication system” (priority 2015, dated 2022).

Experiments:
breast tumors = details: mice models
[1] = tested on: estrogen receptor-positive and estrogen receptor-negative breast cancer cell lines; details: inducing apoptosis in a concentration-dependent manner
[2] = tested on: nontumorigenic mammary cells
prostate cell line, PC-3 = details: Ruiz et al. 1999
[3] = biological target: T1, androgen receptor in the prostate gland (Homo sapiens, UniProt P10275)
T1 sequence (P10275 1-920): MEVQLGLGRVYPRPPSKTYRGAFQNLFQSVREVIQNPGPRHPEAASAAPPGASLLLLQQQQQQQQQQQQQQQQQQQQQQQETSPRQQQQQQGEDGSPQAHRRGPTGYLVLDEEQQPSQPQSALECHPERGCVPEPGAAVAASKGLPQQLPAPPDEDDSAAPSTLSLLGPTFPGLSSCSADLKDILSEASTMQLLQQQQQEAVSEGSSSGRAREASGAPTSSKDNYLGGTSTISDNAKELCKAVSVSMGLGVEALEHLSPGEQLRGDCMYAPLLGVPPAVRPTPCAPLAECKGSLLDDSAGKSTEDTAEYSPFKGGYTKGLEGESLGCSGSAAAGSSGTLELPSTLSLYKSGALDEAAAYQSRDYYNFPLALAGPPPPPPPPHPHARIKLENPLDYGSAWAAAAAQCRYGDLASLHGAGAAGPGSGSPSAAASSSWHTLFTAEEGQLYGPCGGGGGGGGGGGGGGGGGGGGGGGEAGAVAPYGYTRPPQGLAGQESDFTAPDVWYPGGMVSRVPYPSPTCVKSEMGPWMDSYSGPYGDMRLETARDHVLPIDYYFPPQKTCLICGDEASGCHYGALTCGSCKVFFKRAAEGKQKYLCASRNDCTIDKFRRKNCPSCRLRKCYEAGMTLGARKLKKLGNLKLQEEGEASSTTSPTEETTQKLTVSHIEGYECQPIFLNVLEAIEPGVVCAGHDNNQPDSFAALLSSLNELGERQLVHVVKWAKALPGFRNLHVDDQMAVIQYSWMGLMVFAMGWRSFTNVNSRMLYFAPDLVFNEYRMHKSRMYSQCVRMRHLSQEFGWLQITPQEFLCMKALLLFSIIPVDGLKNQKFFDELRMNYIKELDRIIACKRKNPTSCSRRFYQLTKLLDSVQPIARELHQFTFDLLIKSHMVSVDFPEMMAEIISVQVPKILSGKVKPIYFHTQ

CB1 receptor = CB1 receptor (Homo sapiens, UniProt P21554)
[4] = not given; remark: listed apart in the source

Sequence of CB1 receptor (P21554 whole entry): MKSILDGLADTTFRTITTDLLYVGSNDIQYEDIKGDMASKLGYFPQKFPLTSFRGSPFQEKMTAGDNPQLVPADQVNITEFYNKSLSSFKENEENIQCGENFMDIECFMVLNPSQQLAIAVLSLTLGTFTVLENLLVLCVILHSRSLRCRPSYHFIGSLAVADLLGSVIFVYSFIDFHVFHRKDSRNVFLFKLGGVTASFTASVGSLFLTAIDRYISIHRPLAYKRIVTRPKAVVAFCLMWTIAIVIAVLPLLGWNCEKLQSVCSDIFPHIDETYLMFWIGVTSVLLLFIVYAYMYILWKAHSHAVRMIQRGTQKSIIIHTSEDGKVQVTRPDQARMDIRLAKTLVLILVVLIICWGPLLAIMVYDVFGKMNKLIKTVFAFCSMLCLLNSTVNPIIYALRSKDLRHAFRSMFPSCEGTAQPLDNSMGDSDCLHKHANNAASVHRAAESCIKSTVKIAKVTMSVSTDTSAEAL

For `C=C(C)[C@@H]1CCC(C)=C[C@H]1c1c(O)cc(CCCCC)cc1O` [CBD, Cannabidiol], the “effect on breast tumors” value (breast tumors) is listed as “shrink breast tumors, and obstruct growth and metastasis”, the “affinity to cannabinoid receptors” value (cannabinoid receptors) is listed as “low affinity” and the “survival of breast cancer cell lines” value [1] is listed as “inhibited the survival”. The “effect on nontumorigenic mammary cells” value [2] was “little effect”.

For `CCCCCc1cc(O)c2c(c1)OC(C)(C)[C@@H]1CCC(C)=C[C@@H]21` [THC, Tetrahydrocannabinol], the “time after administration at which pain reduction effects were felt (average)” value (cold-pressor test) is listed as 180 min, the pain sensitivity (cold-pressor test after administration, smoked marijuana or oral dronabinol capsules 10 mg or 20 mg) is listed as “decreased pain sensitivity” and the duration of effects (dronabinol compared with smoked marijuana) is listed as “lasted longer than smoked marijuana”. For the same compound, the apoptosis (prostate cell line, PC-3) was “causes apoptosis” and the “specific binding of dihydroxytestosterone to the androgen receptor” value [3] was “inhibits specific binding”.

In the case of `CCCc1cc(O)c2c(c1)OC(C)(C)[C@@H]1CCC(C)=C[C@@H]21` [THCV, Tetrahydrocannabivarin], the “CB1 receptor mode of action” value (CB1 receptor) is given as “antagonist”.

In the case of vitamin E, the “reduction in breast cancer incidence” value ([4]; pre-menopausal women with a family history of breast cancer, highest quantity of vitamin E consumed) is given as 43% and the “risk reduction of breast cancer” value ([4]; women without a family history of breast cancer) is given as 16%.
